The conditions of series [1]: prior-art characterisation; cited from earlier work.
Series [2] in a line: Odor character / fragrance assessment of the material and fractions.
The test system of another series is subjects. The series is described as follows: Determination of approximate aqueous odor threshold (paired beakers, sniffing). The class given is in vivo. Details: key: “X” means correct positive identification; “-” means unable to identify. As for the experimental part:
2 mg of the compound of the invention according to Example I were dissolved in 1.0 ml ethanol and serial dilutions made in deionized water to give test solutions of the compound at concentrations of 100, 20, 4, and 1 ppb.
Pairs of loosely-covered beakers were presented to three subjects, one beaker containing deionized water and the other a test solution. The subjects were asked to identify the beaker containing the test solution by removing the covers and sniffing, with the following results (“X” means correct positive identification, “-” means unable to identify): […]

Series [3] is described as follows: Assessment of stability of the compound (olfactory assessment of stored aqueous solution). The class given is physicochemical. As for the experimental part: 50 ml of a 250-ppb aqueous solution of the compound of the invention according to Example I was held in a covered 100 ml glass weighing bottle for seven months. Environmental conditions were ambient room light (fluorescent and indirect sunlight during daytime; dark at night) and temperature (16-26° C.). The bottle was opened approximately bi-weekly, admitting fresh air and allowing olfactory assessment of the odor strength.

Where two headings read alike, the source gives them in different places.

With `CCC(=O)C1CCC=CCCC=CCCC1` (centres unmarked) [1-(4,8-cyclododecadienyl)-1-propanone], the odor result in series [1] is “cedarwood, amber, pepper”.

Turning to `CC(=O)/C=C/[C@@H]1C(C)=CCCC1(C)C` [(S)-alpha-ionone], in series [1], the odor entry is reported as “cedarwood, raspberry”.

For `C=C(C[C@H](C)CO)[C@H]1CC=C(C)C1(C)C` [(−)-(1′R,2S)-2-methyl-4-(2′,2′,3′-trimethyl-3′-cyclopenten-1′-yl)-4-penten-1-ol], the odor entry in series [1] is “sandalwood; cedar”.

Regarding `C[C@H]1C(=O)C[C@@H]2[C@@H]3[C@H]1[C@@]2(C)CCCC3(C)C` [The C-9 epimer, (1R,2S,7R,8R,9R)-2,6,6,9-tetramethyltricyclo-[5.4.0.0^2,8]undecan-10-one, reference compound], in series [2], the odor character result is listed as “no distinctive or useful fragrance properties”.

Consider `CC1CCC2C(C)(C)C3CC12CC1OC13C` (centres unmarked) [cedrene epoxide], for which, in series [1], the odor entry is recorded as “woody-amber-camphor”.

As to `CC(=O)O[C@]1(C)CC[C@@]23C[C@@H]1C(C)(C)[C@@H]2CC[C@H]3C` [cedryl acetate], the odor result in series [1] is “woody-vetiver”.

Regarding `CO[C@@]1(C)CC[C@@]23C[C@@H]1C(C)(C)[C@@H]2CC[C@H]3C` [methyl cedryl ether], in series [1], the odor result is on record as “woody-amber”.

Consider `CC(=O)C1=C(C)[C@@H]2C[C@@]3(C1)[C@H](C)CC[C@H]3C2(C)C` [methyl cedryl ketone], for which the odor entry in series [1] is recorded as “musk-woody”.

As for `C[C@@H]1C(=O)C[C@@H]2[C@@H]3[C@H]1[C@@]2(C)CCCC3(C)C` [the compound of the invention, (1R,2S,7R,8R,9S)-2,6,6,9-tetramethyltricyclo[5.4.0.0^2,8]undecan-10-one], the odor character entry was “Cedar, woody, cigar box, tobacco, slightly animal—civet. Long-lasting in dry-down” in series [2] (listed as Example III); “intense, pleasant and characteristic cedar wood odor” in series [2] (listed as The compound). The “identification of the beaker containing the test solution” value is given as “X” in the series with subjects (1 ppb in deionized water, Subject 3); “X” with subjects (4 ppb in deionized water, Subject 1); “X” in the series on subjects (4 ppb in deionized water, Subject 3); “X” with subjects (20 ppb in deionized water, Subject 1); “X” with subjects (20 ppb in deionized water, Subject 3); “X” in the series on subjects (100 ppb in deionized water, Subject 1). In addition, the “identification of the beaker containing the test solution” value was “X” in the series with subjects (100 ppb in deionized water, Subject 2) and “X” in the series with subjects (100 ppb in deionized water, Subject 3). Moreover, the “odor intensity after storage” value in series [3] (250-ppb aqueous solution, seven months, ambient room light, 16-26° C., opened approximately bi-weekly) is on record as “No decrease in odor intensity”. Further, in series [3] (action of light, oxygen, and moisture), the stability result is “stable against the action of light, oxygen, and moisture”.
